We go through 8 compounds from patent publication EP1541559A1, “5-SUBSTITUTED ISOQUINOLINE DERIVATIVE” (Asahi Kasei Pharma Corporation, priority 2002, dated 2004).

Experiment [1] relates to myosin regulatory light chain. Nature of the experiment: Action on amount of phosphorylated myosin regulatory light chain in the cells (Test Example 1). As to conditions: neutrophils of healthy volunteers, reaction with test compound at 25°C for 5 minutes, read-out: Inhibition of myosin regulatory light chain phosphorylation (IC50: µM). The format is cell-based, human. How it is done: The neutrophils were washed with PBS(-) and resuspended in Hanks' Balanced Salt Solution (HBSS+, Gibco) to prepare a cell suspension (8 x 10^6/ml). The cell suspension was diluted to 5 x 10^6/ml, introduced into Eppendorf tubes in a volume of 0.4 ml each, then 0.1 ml each of solutions of a test compound at various concentrations were added to the suspension and allowed to react at 25°C for 5 minutes. After the reaction, 0.1 ml of trichloroacetic acid solution was added to each reaction, the reaction mixture was gently shaken and centrifuged at 12,000 rpm (4°C, 5 minutes), and the supernatant was removed. Subsequently, 3 μl of 1 M Tris solution was added to the residue, the mixture was further mixed with 50 μl of extraction buffer (8 M urea, 0.02% 2-mercaptoethanol, 0.002% bromophenol blue) and left stand at room temperature for 1 hour. Then, the reaction mixture was loaded on a spin column (0.45 μm, Millipore) to remove the insoluble solids and a sample buffer for SDS polyacrylamide gel electrophoresis (25 mM, Tris-HCl pH 6.8, 2.5% 2-mercaptoethanol, 2% sodium dodecylsulfate, 5% sucrose, 0.002% bromophenol blue as final concentrations) was added, and 10 μl of each sample was subjected to electrophoresis. […] J. Physiol., 274, […]-[…] (1998)), which specifically recognize the phosphorylated myosin regulatory light chain, and donkey anti-mouse IgG (Chemicon) conjugated with horseradish peroxidase (HRP-labeled). The band of the phosphorylated myosin regulatory light chain was detected on a film by using ECL Plus Kit (Amersham Pharmacia Biotech). This band was subjected to quantification using a densitometer. By using this value, the inhibitory ratio (%) for phosphorylation of the myosin regulatory light chain was calculated by using the following equation.

The subject of another experiment is thoracic aorta. Nature of the experiment: Vasoconstriction inhibitory action on aorta rings constricted with phenylephrine (Test Example 2). Details: species or system Rats (Wistar, 11-week old). As to conditions: aorta constricted with phenylephrine (1 µM); for vasoconstriction inhibitory action: result in words. An excerpt: Rats (Wistar, 11-week old) were bleeded to death and laparotomized to take out the thoracic aorta.

A further experiment has as its system Neutrophils. Put plainly: Neutrophil migration inhibitory action, Boyden Chamber, FMLP (Test Example 5). It counts as cell-based, human. As to conditions: Homo sapiens, Neutrophil, 0.5 h, FMLP (1 µM), migration at 37°C for 30 minutes; read-out: Neutrophil migration inhibition IC50. How it is done:
Neutrophils were isolated from 50 to 100 ml of peripheral blood collected from healthy donors by the method described in Test Example 1 to obtain a cell suspension (8 x 10^6/ml). Subsequently, solutions of a test compound at various concentrations were introduced into wells of a 96-well plate in a volume of 125 µl per well, the cell suspension of an equivalent volume was added to it and the plate was preincubated at room temperature for 5 minutes. During the preincubation, FMLP (1 µM, Sigma) solution was added to the lower chamber to set Boyden Chamber, the preincubated cell suspension was added to the upper chamber in a volume of 200 µl per well, and the cells were allowed to migrate at 37°C under 5% carbon dioxide for 30 minutes. The filter after the migration was collected, and the non-migrated cells adhered to the surface that faced the upper chamber were carefully wiped off. Then, the migrated cells on the back surface were stained with DifQuick dye solution (International Reagents), washed with water and dried, and then absorbance was measured at 595 nm. The inhibition ratio against migration (%) of a test compound was calculated by using the following equation: Migration inhibition ratio (%) = (1 -Absorbance of the group with addition of test compound /Absorbance of the group without addition of test compound) x 100 [formula]

In experiment [2] the test system is human neutrophil fraction. Nature of the experiment: Action on increase of intracellular calcium concentration, Fura2-AM, fMLP (Test Example 7). It counts as cell-based. As to conditions: test compound 1 µM added 3 minutes before fMLP (1 µM), R = F340/F380, without test compound = 100%, read-out: Maximum R value (%). As for the experimental part: According to the method described in Test Example 1, a neutrophil containing fraction was prepared. Fura2-AM (Sigma) at a final concentration of 3 µM was added to the human neutrophil fraction and the mixture was incubated at 37°C for 1 hour. After centrifugation (250 g for 5 minutes), the supernatant was discarded, and the neutrophils were resuspended in Hanks' Balanced Salt Solution (HBSS, Gibco) to prepare a cell suspension (8 x 10^6/ml) for measurement of intracellular calcium concentration. The cell suspension for measurement of intracellular calcium concentration was left stand at room temperature for 30 minutes. Then, 490 µl of the cell suspension for measurement of intracellular calcium concentration was placed in a cuvette, 10 µl of calcium chloride solution at a final concentration of […] was added to it and the cuvette was set in an intracellular calcium concentration analyzer (CAF110, Nippon Bunko). fMLP (Sigma) solution at a final concentration of 1 µM was added to the cell suspension, and F340 and F380, which are fluorescence intensity at 340 nm and 380 nm, respectively, were measured to obtain an R value (F340/F380) as an index of the intracellular calcium concentration. A test compound (1 µM) was added 3 minutes before the addition of fMLP, and the action on the intracellular calcium concentration was observed. The ratios of the maximum R value obtained with addition of each test compound, based on the maximum R value obtained without addition of test compound and taken as 100%, are shown in Table 10 mentioned below.

In experiment [3] the test system is ovalbumin-immunized guinea pigs. Nature of the experiment: Respiratory tract constriction suppression action, ovalbumin-induced (Test Example 3). The settings on record: result in words; test medicament given into hind leg vein after induction with 0.3 mg/kg ovalbumin, measured for 15 minutes. It counts as in vivo, Hartley guinea pigs. As for the experimental part: Four-week old Hartley guinea pigs (male) were immunized by intraperitoneal administration of ovalbumin (Sigma, Grade V) in amounts of 1 mg for each animal on the day on which the experiment was started, 3 mg for each animal after 2 days, and 10 mg for each animal after 4 days. Twelve to fourteen days after the final immunization, the ovalbumin-immunized guinea pigs were anesthetized by intraperitoneal administration of about 40 mg/kg of pentobarbital (Somnopentyl), and the tracheas were taken out. Subsequently, a cannula (SP-110, Natsume) was inserted into each trachea, and one end of the cannula was connected to an artificial respirator (Model-b83, Harvard). The aeration conditions were set at 6 ml per kilogram and 60 times per 1 minute. Further, a cannula for medicament administration (JMS wing needle 23G 3/4) was inserted into a hind leg vein. Myoblock (Organon Technica) was administered in an amount of 0.5 mg/kg from the cannula inserted into the hind leg vein to stop the spontaneous breathing, and after 2 or 3 minutes, 0.3 mg/kg of ovalbumin was administered to induce constriction of respiratory tract. The increase of airway resistance value 2 minutes after the induction (measurement apparatuses: pressure transducer TR-603T, respiratory amplifier AR-601G, and recorder RTA-3100, Nihon Kohden Corp.) was confirmed to be above 80 cm H2O or higher, and then, a solution of a test medicament was administered from the cannula inserted into the hind leg vein, and the airway resistance value was continuously measured for 15 minutes after the administration to determine the effect.

The next experiment deals with BALB/c female mice. Put plainly: Respiratory tract inflammation suppressing action, OVA-induced (Test Example 6). It counts as in vivo. As for the experimental part:
According to the method described in Henderson, W.R., et al., Am. J. Respir. Cric. Care Med., 165(1), 108-116 (2002), suppressing action on bronchial inflammation was confirmed. BALB/c female mice (7-week old) were used for the test, each group consisting of 7 mice, and the control group consisting of 11 or 12 mice. The mice were intraperitoneally administered with ovalbumin (OVA, 100 ng, Sigma) and 1 mg of aluminum hydroxide for initial immunization, and after 2 weeks, they are subcutaneously administered with 10 ng of OVA as additional immunization. After further 1 week, a test compound was dissolved in water containing 0.5% carboxymethylcellulose and orally administered (30 mg/kg) to the test animals once a day for 5 days. The control group was similarly given only with water containing 0.5% carboxymethylcellulose. After 1 hour, the mice were orally inhaled with 2% OVA for 10 minutes to induce a respiratory tract inflammation. Further, the control group, in which the mice were not given with the test compound, was divided into a positive control group (n = 7), in which the mice were inhaled with 2% OVA to induce the reaction, and a negative control group (n = 4 or 5), in which the mice were similarly inhaled with physiological saline. After 24 hours, alveoli in the lungs of the test animals were washed with physiological saline, and the total infiltrated white blood cells (WBC) were counted.

A further experiment has as its system Japanese white rabbit. Nature of the experiment: Intraocular pressure reducing action (Test Example 4). It counts as in vivo. As to conditions: result in words. How it is done:
A Japanese white rabbit having a body weight of about 2 kg was placed in a positioner and naturalized for one week before the experiment. An ophthalmologic local […] (Benoxil) was administered to the left eye, and then intraocular pressure was measured by using a tonometer (Classic 30, Solan). The initial value of the intraocular pressure was measured, then 50 μl of a test compound (1% aqueous solution) was dropped to the left eye, and after 2 hours, the intraocular pressure was measured. The intraocular pressure reducing action of the test compounds is shown in Table 7 mentioned below as ratios (%) of reduction of intraocular pressure based on the initial value of the intraocular pressure.

Where [4] appears, read: Homo sapiens, Neutrophil, 5 min.

Like-named read-outs stand apart in the source and are kept apart here. A value given as a limit tells only on which side of the number the result lay.

As to `Cc1cncc2cccc(S(=O)(=O)N(CCCN)CCCc3ccccc3)c12.Cl` [Example 5, N-[(4-Methyl-5-isoquinolyl)sulfonyl]-N-(3-phenylpropyl)-1,3-propylenediamine hydrochloride], the IC50 in experiment [1] (setting [4]) is 0.8 µM; in the experiment with Neutrophils, at most 1 µM. In the experiment with thoracic aorta, the vasoconstriction inhibitory action entry is listed as “significant vasoconstriction inhibitory action”. The activity at 1 µM in experiment [2] turned out to be 98%.

On to `Cl.NCCCN(CCCc1ccccc1)S(=O)(=O)c1cccc2c(N)nccc12` [Example 8, N-[(1-Amino-5-isoquinolyl)sulfonyl]-N-(3-phenylpropyl)-1,3-propylenediamine hydrochloride], for which the IC50 in experiment [1] (setting [4]) was 0.3 µM; in the experiment on Neutrophils, at most 1 µM. In the experiment with thoracic aorta, the vasoconstriction inhibitory action result is “significant vasoconstriction inhibitory action”. Also, the activity at 1 µM in experiment [2] was 99%.

On to `Cl.NCCN(CCS(=O)(=O)c1ccccc1)S(=O)(=O)c1cccc2c(O)nccc12` [Example 12, N-[(1-Hydroxy-5-isoquinolyl)sulfonyl]-N-[2-(phenylsulfonyl)ethyl]ethylenediamine hydrochloride], for which the IC50 was 20 µM in experiment [1] (setting [4]) and 1 to 10 µM with Neutrophils. For the same compound, the vasoconstriction inhibitory action result in the experiment with thoracic aorta is recorded as “significant vasoconstriction inhibitory action”. The “constriction of respiratory tract (airway resistance value)” value (“constriction of respiratory tract” for short) in experiment [3] is “significantly improved the constriction of respiratory tract”. For the same compound, the “Total WBC count x 10E5/ml/mouse” value in the experiment on BALB/c female mice (orally 30 mg/kg once a day for 5 days, inhalation of 2% OVA, alveoli washed after 24 hours) worked out at 100 x 10E5/ml/mouse.

`Cl.c1cc(NC2CCNCC2)c2ccncc2c1` [Example 20, 4-(5-Isoquinolyl)aminopiperidine hydrochloride]: the figures for the IC50 (in experiment [1] (setting [4]); in the experiment on Neutrophils) were 1.8 µM and 1 to 10 µM, respectively. Moreover, the inhibition at 1 µM in the experiment on thoracic aorta (Rattus norvegicus, test compound 1 µM, read-out: Vasoconstriction inhibitory action (relaxation ratio) (%)) was 82.8%. For the same compound, the “constriction of respiratory tract” value in experiment [3] is given as “significantly improved the constriction of respiratory tract”. The activity at 1 µM in experiment [2] was determined as 100%.

Consider `Cc1cncc2cccc(NC3CCNCC3)c12.Cl` [Example 106, 4-(4-Methyl-5-isoquinolyl)aminopiperidine hydrochloride], for which the IC50 in experiment [1] (setting [4]) was at most 40 µM; in experiment [1] (hydrochloride), at most 20 µM; with Neutrophils it was 10 to 40 µM. In addition, the vasoconstriction inhibitory action result in the experiment with thoracic aorta is “significant vasoconstriction inhibitory action”. For the same compound, the “constriction of respiratory tract” value in experiment [3] is on record as “significantly improved the constriction of respiratory tract”. The “infiltrated white blood cell number” value in the experiment on BALB/c female mice (result in words) is on record as “decrease of infiltrated white blood cell number”.

Consider `Cc1cncc2cccc(O[C@H]3CC[C@H](N)CC3)c12.Cl` [Example 140, Trans-4-[(4-methyl-5-isoquinolyl)oxy]cyclohexylamine hydrochloride], for which the results for the IC50 in experiment [1] (setting [4]) and in experiment [1] (hydrochloride) were at most 40 µM and at most 20 µM, respectively. Moreover, the vasoconstriction inhibitory action entry with thoracic aorta was “significant vasoconstriction inhibitory action”. Besides, the “constriction of respiratory tract” value in experiment [3] is reported as “significantly improved the constriction of respiratory tract”. For the same compound, the “intraocular pressure reducing activity” value in the experiment on Japanese white rabbit is reported as “significant intraocular pressure reducing activity”.

For `Cl.OCCN1CCC(Nc2cccc3cnccc23)CC1` [Example 144, 1-(2-Hydroxyethyl)-4-(5-isoquinolyl)aminopiperidine hydrochloride], the IC50 in experiment [1] (setting [4]) was at most 40 µM. In addition, in experiment [3], the “constriction of respiratory tract” value is on record as “significantly improved the constriction of respiratory tract”. Besides, the “intraocular pressure reducing activity” value in the experiment with Japanese white rabbit is given as “significant intraocular pressure reducing activity”.

For `Cc1cncc2cccc(NC3CCN(CCO)CC3)c12.Cl` [Example 146, 1-(2-Hydroxyethyl)-4-(4-methyl-5-isoquinolyl)aminopiperidine hydrochloride], the IC50 is at most 40 µM in experiment [1] (setting [4]), at most 20 µM in experiment [1] (hydrochloride) and at most 40 µM in the experiment with Neutrophils. In the experiment with thoracic aorta, the vasoconstriction inhibitory action entry is “significant vasoconstriction inhibitory action”. The “constriction of respiratory tract” value in experiment [3] is reported as “significantly improved the constriction of respiratory tract”. In addition, the “intraocular pressure reducing activity” value with Japanese white rabbit is listed as “significant intraocular pressure reducing activity”.
